Columns and labels:
TNF-α = TNF-α levels after single oral doses versus placebo (ex vivo LPS-challenged blood samples); assay type: in vivo, human
Procedure: (§1) A number of PK studies have been performed looking at both dosing intervals (Days 1, 3 and 5 (FIGS. 1-4, top panels) versus Days 1, 4 and 7 (FIGS. 1-4 bottom panels)), as well as dose levels (approximately 75/40/40 mg (FIG. 1); approximately 75/20/20 (FIG. 2); approximately 40/40/40 mg (FIG. 3); approximately 40/20/20 mg (FIG. 4), etc.). Based on exposures of the various regimens, there is limited benefit in dosing beyond Day 5 for a typical exacerbation.
Part 1 of study CBCT197A2101 was a randomized, double-blind, placebo-controlled, ascending single-dose study to evaluate safety, tolerability, PK and PD of oral 3-[5-amino-4-(3-cyanobenzoyl)-pyrazol-1-yl]-N-cyclopropyl-4-methylbenzamide in healthy subjects. Part 2 was a 14-day, randomized, double-blind, placebo-controlled, ascending multiple dose study evaluating the PK and PD of oral 3-[5-amino-4-(3-cyanobenzoyl)-pyrazol-1-yl]-N-cyclopropyl-4-methylbenzamide. PD effect of 3-[5-amino-4-(3-cyanobenzoyl)-pyrazol-1-yl]-N-cyclopropyl-4-methylbenzamide in Parts 1 and 2 was assessed by measuring TNFa levels in ex vivo LPS-challenged blood samples. […] Part 3 of the study determined the effect of a single oral administration of 3-[5-amino-4-(3-cyanobenzoyl)-pyrazol-1-yl]-N-cyclopropyl-4-methylbenzamide on serum TNFa levels after in vivo intravenous LPS challenge.

[1] = Plasma protein binding (free fraction) in human plasma samples; assay type: in vitro ADME
[2] = Human plasma PK of the Day 1, 3 and 5 dosing regimen; assay type: in vivo
Text: This study investigated the efficacy, safety and tolerability of two different dosing regimens of 3-[5-amino-4-(3-cyanobenzoyl)-pyrazol-1-yl]-N-cyclopropyl-4-methylbenzamide added to SoC (systemic corticosteroids and/or antibiotics) versus placebo added to SoC in subjects with severe acute exacerbations of COPD. The proposed doses take into account trough levels based on PK modelling to ensure that the drug rapidly achieves and remains at effective concentrations between doses.
as §1
Dosing at Day 1, 3 and 5, maintains drug levels above 220 ng/mL out to approximately 140 to 150 hours. This achieves a plasma concentration of 5.7 μM.
The concentration based on free fraction is at or above 740 nM for the duration of the dosing interval. Cmax is approximately 2 μM based on the first dose. […] Assuming a PK variability of 50%, drug levels are 3 to 5 times above the K and so would produce high levels of inhibition, potentially in the range of 90 to 99%.

[3] = Highest safe dose based on toxicology margins
Procedure: However, in order to initiate suppression of the inflammatory response the Day 1 dose in both regimes is higher than the doses on Days 3 and 5. The ‘high’ dosing regimen (regimen 1) is initiated at 75 mg which is the highest dose which can be safely administered based on toxicology margins whereas the ‘low’ dose regimen is initiated at a 40 mg dose which approximates to the mid-point in the TNF-α response curve.

[4] = single oral dose; WO 2013/139809; cited from earlier work

Q: Which “reduction in TNF-α levels” value (TNF-α; doses ranging from 0.1 to 75 mg) does the source give for `Cc1ccc(C(=O)NC2CC2)cc1-n1ncc(C(=O)c2cccc(C#N)c2)c1N` [3-[5-amino-4-(3-cyanobenzoyl)-pyrazol-1-yl]-N-cyclopropyl-4-methylbenzamide] here?
A: dose-dependent reduction

Q: And the “dose approximating the mid-point in the TNF-α response curve” value (TNF-α; in vivo)?
A: ~40 mg

Q: What about the fraction unbound [1] of the same compound?
A: 0.13 to 0.25

Q: And the plasma concentration ([2]; dosing at Day 1, 3 and 5)?
A: 5700 nM

Q: What about the drug levels maintained ([2]; dosing at Day 1, 3 and 5, out to approximately 140 to 150 hours) of the same compound?
A: above 220 ng/mL

Q: And the “concentration based on free fraction” value ([2]; for the duration of the dosing interval)?
A: ≥ 740 nM

Q: What about the Cmax ([2]; human, plasma, oral, based on the first dose) of the same compound?
A: ~2000 nM

Q: What about the enzyme inhibition ([2]; occurs for 6 days, from drug levels versus Ki and IC50) of the same compound?
A: > 99%

Q: What about the “highest dose which can be safely administered based on toxicology margins” value [3] of the same compound?
A: 75 mg

Q: What about the “effect on recovery of AECOPD to the stable disease state” value [4] of the same compound?
A: accelerates the recovery to the stable disease state

From patent publication US11129810B2, “Dosage regimen for the treatment of acute exacerbations of chronic obstructive pulmonary disease” (MEREO BIOPHARMA 1 LIMITED, priority 2016, dated 2021)
